The values that follow are results of earlier work, collected in US11318142B2, “Pharmaceutical formulation for use in the treatment of depressive and anxiety disorders” (priority 2018, dated 2022).

For orientation: half-life means the time in which the quantity being followed falls by half.

Structures are written as SMILES.

The conditions of the data set: in vivo.

With `OCCN1CCN(CCCN2c3ccccc3C=Cc3ccccc32)CC1` [opipramol, 4-[3-(5H-dibenz[b,f]azepine-5-yl)propyl]-1-piperazinethanol], the half-life is 6 to 11 h.
`COc1ccc(C(CN(C)C)C2(O)CCCCC2)cc1` (racemic) [venlafaxine, (RS)-1-[2-dimethylamino-1-(4-methoxyphenyl)-ethyl]cyclohexanol]: the half-life was ~7 h.
